Laboratory results reported in ChEMBL document CHEMBL1909046, “DrugMatrix in vitro pharmacology data”.

Key:
Cytochrome P450 2A6 = target: T1, Cytochrome P450 2A6 (Homo sapiens, UniProt P11509); details: bti-tn-5b1-4; further: in other assays of this panel Not Active means under 50% inhibition at 10 µM
T1 sequence (P11509 whole entry): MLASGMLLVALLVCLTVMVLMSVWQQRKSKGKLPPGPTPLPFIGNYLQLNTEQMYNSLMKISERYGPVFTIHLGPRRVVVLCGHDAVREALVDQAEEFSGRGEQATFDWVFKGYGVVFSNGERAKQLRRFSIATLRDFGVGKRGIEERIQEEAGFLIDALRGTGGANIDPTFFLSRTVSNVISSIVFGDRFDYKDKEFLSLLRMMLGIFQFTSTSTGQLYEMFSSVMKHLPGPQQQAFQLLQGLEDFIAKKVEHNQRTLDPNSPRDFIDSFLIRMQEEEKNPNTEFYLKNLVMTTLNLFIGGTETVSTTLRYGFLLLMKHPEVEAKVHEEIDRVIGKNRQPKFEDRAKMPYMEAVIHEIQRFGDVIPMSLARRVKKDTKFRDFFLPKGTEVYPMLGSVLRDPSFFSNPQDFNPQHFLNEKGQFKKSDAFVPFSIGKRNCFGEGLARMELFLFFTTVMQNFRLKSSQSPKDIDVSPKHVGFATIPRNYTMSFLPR

Insulin receptor = Insulin receptor (Rattus norvegicus, UniProt P15127); type: cell membranes, Wistar, Liver, Membrane; further: in other assays of this panel Not Active means under 50% inhibition at 10 µM
Sequence of Insulin receptor (P15127 27-759 limits assumed): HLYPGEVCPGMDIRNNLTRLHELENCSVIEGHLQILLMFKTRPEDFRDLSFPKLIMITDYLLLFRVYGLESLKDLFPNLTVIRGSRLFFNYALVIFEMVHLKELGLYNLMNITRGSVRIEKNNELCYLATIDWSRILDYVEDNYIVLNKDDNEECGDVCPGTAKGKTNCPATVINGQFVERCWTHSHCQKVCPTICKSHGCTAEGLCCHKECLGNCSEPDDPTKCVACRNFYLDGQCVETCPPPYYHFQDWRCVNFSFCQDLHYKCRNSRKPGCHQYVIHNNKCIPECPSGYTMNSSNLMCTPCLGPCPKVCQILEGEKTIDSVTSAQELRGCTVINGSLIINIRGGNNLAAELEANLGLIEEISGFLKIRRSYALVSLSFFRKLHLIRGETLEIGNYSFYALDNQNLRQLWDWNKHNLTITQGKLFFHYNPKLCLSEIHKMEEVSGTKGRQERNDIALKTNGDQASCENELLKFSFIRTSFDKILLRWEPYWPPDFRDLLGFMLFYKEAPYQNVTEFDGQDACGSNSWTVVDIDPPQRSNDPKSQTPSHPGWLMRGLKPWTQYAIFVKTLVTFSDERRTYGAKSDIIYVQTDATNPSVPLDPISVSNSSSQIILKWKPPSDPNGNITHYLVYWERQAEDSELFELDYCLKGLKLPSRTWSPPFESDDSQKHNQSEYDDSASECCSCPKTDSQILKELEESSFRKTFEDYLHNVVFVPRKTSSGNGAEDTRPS
Sequence of Insulin receptor (P15127 764-1383 limits assumed): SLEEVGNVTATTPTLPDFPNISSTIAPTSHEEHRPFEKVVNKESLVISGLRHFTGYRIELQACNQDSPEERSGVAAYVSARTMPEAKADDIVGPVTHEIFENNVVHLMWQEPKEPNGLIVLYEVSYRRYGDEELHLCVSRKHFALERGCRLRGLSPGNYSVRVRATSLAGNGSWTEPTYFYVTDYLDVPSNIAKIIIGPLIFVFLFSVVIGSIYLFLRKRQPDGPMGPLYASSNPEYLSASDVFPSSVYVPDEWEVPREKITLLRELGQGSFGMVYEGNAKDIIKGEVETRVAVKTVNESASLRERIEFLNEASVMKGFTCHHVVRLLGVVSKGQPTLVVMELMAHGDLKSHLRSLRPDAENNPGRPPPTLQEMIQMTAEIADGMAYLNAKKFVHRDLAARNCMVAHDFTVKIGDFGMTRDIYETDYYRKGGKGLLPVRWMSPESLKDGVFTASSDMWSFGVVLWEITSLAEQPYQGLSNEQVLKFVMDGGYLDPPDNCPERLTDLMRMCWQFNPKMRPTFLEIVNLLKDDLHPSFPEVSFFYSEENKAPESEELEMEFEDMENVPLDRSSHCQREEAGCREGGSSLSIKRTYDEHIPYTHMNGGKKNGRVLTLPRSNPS

[1] = target: Mitogen-activated protein kinase 3 (Homo sapiens, UniProt P27361); assay: DRUGMATRIX: Protein Serine/Threonine Kinase, ERK1 enzyme inhibition (substrate: Myelin Basic Protein); design: species or system Escherichia coli; details: Not Active = under 50% inhibition at 10 µM
Sequence of Mitogen-activated protein kinase 3 (P27361 whole entry): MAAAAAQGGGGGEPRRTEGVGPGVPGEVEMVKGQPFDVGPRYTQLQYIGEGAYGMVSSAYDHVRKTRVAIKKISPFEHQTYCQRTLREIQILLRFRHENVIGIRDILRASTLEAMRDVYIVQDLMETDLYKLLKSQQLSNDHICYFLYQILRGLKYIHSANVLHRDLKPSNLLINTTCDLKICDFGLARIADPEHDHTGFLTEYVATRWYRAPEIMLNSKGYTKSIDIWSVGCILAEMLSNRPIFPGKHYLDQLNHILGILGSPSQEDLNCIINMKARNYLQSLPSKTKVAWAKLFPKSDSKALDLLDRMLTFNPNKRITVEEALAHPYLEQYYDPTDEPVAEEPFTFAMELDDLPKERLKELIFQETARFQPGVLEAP

[2] = target: 5-hydroxytryptamine receptor 1B (Rattus norvegicus, UniProt P28564); type: cell membranes, Wistar, Cerebral cortex, Membrane; further: in other assays of this panel Not Active means under 50% inhibition at 10 µM
Sequence of 5-hydroxytryptamine receptor 1B (P28564 whole entry): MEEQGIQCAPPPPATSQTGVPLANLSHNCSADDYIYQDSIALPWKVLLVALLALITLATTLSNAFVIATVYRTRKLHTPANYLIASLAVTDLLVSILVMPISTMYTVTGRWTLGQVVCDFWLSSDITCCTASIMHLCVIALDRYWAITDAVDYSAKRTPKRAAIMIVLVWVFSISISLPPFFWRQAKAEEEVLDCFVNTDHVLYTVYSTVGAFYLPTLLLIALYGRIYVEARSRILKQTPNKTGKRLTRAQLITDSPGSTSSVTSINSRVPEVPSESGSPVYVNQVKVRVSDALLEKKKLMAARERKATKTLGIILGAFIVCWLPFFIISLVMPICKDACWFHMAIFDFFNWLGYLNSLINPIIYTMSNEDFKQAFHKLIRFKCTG

[3] = target: T2, 5-hydroxytryptamine receptor 1A (Rattus norvegicus, UniProt P19327); type: cell membranes, CHO-K1, Membrane; further: in other assays of this panel Not Active means under 50% inhibition at 10 µM
T2 sequence (P19327 whole entry): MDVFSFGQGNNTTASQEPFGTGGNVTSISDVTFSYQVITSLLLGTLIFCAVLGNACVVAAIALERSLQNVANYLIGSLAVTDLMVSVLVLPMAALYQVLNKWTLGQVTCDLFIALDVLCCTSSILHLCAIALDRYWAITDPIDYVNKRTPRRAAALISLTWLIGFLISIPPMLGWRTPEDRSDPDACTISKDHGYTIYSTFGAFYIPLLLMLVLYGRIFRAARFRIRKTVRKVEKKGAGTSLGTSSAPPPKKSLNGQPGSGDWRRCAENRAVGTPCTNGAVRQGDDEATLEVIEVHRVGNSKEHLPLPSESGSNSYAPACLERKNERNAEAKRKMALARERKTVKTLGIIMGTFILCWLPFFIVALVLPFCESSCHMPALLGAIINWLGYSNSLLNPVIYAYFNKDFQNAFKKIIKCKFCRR

[4] = DRUGMATRIX: GABAA, Muscimol, Central radioligand binding (ligand: [3H] Muscimol); type: cell membranes, Rattus norvegicus, Wistar, Brain, Membrane; details: Not Active = under 50% inhibition at 10 µM
[5] = target: T3, Neuropeptide Y receptor type 1 (Homo sapiens, UniProt P25929); type: cell membranes, Membrane; details: sk-n-mc; further: in other assays of this panel Not Active means under 50% inhibition at 10 µM
T3 sequence (P25929 whole entry): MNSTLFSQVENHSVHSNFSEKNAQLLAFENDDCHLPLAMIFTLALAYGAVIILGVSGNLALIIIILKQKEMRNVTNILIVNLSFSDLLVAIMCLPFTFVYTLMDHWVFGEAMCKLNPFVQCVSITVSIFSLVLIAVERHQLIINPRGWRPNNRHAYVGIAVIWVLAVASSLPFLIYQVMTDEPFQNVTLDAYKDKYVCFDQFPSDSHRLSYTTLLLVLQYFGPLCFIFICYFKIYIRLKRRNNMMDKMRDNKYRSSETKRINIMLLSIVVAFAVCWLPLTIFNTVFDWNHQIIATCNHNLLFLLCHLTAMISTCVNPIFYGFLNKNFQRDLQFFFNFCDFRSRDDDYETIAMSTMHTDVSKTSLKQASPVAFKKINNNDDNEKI

[6] = target: T4, Angiotensin-converting enzyme (Oryctolagus cuniculus, UniProt P12822); type: tissue-based, Lung
T4 sequence (P12822 whole entry): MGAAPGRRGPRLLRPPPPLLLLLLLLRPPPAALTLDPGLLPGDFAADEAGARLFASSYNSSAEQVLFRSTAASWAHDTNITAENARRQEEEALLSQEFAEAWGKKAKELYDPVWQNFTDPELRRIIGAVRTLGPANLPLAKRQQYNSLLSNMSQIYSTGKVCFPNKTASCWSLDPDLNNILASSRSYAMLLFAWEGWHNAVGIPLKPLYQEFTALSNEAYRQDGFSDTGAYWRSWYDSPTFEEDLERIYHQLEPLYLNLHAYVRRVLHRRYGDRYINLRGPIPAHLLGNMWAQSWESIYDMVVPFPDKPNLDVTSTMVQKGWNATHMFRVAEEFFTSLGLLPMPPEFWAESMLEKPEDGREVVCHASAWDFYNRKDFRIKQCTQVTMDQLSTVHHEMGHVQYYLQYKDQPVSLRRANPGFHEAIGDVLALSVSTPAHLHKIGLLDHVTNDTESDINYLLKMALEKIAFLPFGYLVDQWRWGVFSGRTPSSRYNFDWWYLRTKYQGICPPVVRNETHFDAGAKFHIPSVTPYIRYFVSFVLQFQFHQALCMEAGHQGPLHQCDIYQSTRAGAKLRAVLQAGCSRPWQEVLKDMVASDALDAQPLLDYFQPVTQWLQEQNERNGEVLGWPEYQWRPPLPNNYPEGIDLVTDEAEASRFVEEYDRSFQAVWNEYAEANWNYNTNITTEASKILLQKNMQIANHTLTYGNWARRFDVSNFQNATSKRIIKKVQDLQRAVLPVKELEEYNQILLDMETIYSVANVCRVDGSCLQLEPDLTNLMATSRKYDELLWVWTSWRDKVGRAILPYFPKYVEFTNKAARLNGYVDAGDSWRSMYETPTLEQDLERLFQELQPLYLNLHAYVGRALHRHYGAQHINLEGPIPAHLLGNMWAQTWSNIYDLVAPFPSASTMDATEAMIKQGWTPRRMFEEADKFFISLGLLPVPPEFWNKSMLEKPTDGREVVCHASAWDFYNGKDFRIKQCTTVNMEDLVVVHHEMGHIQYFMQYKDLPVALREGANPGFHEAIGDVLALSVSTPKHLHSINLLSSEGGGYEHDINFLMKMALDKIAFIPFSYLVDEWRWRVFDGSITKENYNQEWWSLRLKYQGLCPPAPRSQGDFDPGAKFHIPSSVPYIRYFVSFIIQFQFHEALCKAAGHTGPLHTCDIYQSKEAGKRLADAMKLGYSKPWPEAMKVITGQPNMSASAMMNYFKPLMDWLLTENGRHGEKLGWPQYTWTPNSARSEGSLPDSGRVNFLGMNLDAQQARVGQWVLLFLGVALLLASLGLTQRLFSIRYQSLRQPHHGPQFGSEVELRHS

Compound | IC50 (Cytochrome P450 2A6) | Ki (Cytochrome P450 2A6) | IC50 (Insulin receptor) | IC50 [1] | IC50 [2] | IC50 ([3]; cho-k1) | IC50 [4] | Ki [4] | IC50 [5] | IC50 [6] | IC50 ([3]; read-out: IC50) [µM] | Ki ([3]; read-out: Ki) [µM] | Ki (Insulin receptor) | Ki [1] | Ki [2] | Ki ([3]; cho-k1) | Ki [5] | Ki [6]
CCCCc1nc(Cl)c(CO)n1Cc1ccc(-c2ccccc2-c2nnn[nH]2)cc1 [LOSARTAN] | Not Active | Not Active | Not Active | Not Active | Not Active | Not Active | Not Active | Not Active | Not Active | Not Active |  |  |  |  |  |  |  | 
Sc1ncnc2nc[nH]c12 [MERCAPTOPURINE ANHYDROUS] | Not Active | Not Active | Not Active | Not Active | Not Active | Not Active | Not Active | Not Active | Not Active | Not Active |  |  |  |  |  |  |  | 
C[C@](N)(Cc1ccc(O)c(O)c1)C(=O)O [METHYLDOPA] | Not Active | Not Active | Not Active | Not Active | Not Active | Not Active | Not Active | Not Active | Not Active | Not Active |  |  |  |  |  |  |  | 
C[C@]12CCC(=O)C=C1CC[C@@H]1[C@@H]2CC[C@@]2(C)[C@H]1CC[C@]2(C)O [METHYLTESTOSTERONE] | Not Active | Not Active | Not Active | Not Active | Not Active | Not Active | Not Active | Not Active | Not Active | Not Active |  |  |  |  |  |  |  | 
Cc1ccccc1N1C(=O)c2cc(S(N)(=O)=O)c(Cl)cc2NC1C (configuration not stated) [METOLAZONE] | Not Active | Not Active | Not Active | Not Active | Not Active | Not Active | Not Active | Not Active | Not Active | Not Active |  |  |  |  |  |  |  | 
COCCc1ccc(OCC(O)CNC(C)C)cc1 (configuration not stated) [METOPROLOL] | Not Active | Not Active | Not Active | Not Active | Not Active | Not Active | Not Active | Not Active | Not Active | Not Active |  |  |  |  |  |  |  | 
CCn1cc(C(=O)O)c(=O)c2cc(F)c(N3CCNCC3)cc21 [NORFLOXACIN] | Not Active | Not Active | Not Active | Not Active | Not Active | Not Active | Not Active | Not Active | Not Active | Not Active |  |  |  |  |  |  |  | 
NC1=NC(=O)C(c2ccccc2)O1 (configuration not stated) [PEMOLINE] | Not Active | Not Active | Not Active | Not Active | Not Active | Not Active | Not Active | Not Active | Not Active | Not Active |  |  |  |  |  |  |  | 
Nc1nc2c(ncn2CCC(CO)CO)c(=O)[nH]1 [PENCICLOVIR] | Not Active | Not Active | Not Active | Not Active | Not Active | Not Active | Not Active | Not Active | Not Active | Not Active |  |  |  |  |  |  |  | 
C=C(C)C1(O)OC(=O)C=C1OC (configuration not stated) [PENICILLIC ACID] | Not Active | Not Active | Not Active | Not Active | Not Active | Not Active | Not Active | Not Active | Not Active | Not Active |  |  |  |  |  |  |  | 
C1CCC(C(CC2CCCCN2)C2CCCCC2)CC1 (configuration not stated) [PERHEXILINE] | Not Active | Not Active | Not Active | Not Active | Not Active | Not Active | Not Active | Not Active | Not Active | Not Active |  |  |  |  |  |  |  | 
CCOc1ccc(NC(C)=O)cc1 [PHENACETIN] | Not Active | Not Active | Not Active | Not Active | Not Active | Not Active | Not Active | Not Active | Not Active | Not Active |  |  |  |  |  |  |  | 
Cc1ccc(N(CC2=NCCN2)c2cccc(O)c2)cc1 [PHENTOLAMINE] | Not Active | Not Active | Not Active | Not Active | Not Active | Not Active | Not Active | Not Active | Not Active | Not Active |  |  |  |  |  |  |  | 
CNNCc1ccc(C(=O)NC(C)C)cc1 [PROCARBAZINE] | Not Active | Not Active | Not Active | Not Active | Not Active | Not Active | Not Active | Not Active | Not Active | Not Active |  |  |  |  |  |  |  | 
CN(C)CCCN1c2ccccc2Sc2ccccc21 [PROMAZINE] | Not Active | Not Active | Not Active | Not Active | Not Active |  | Not Active | Not Active | Not Active | Not Active | 5.17 | 2.96 |  |  |  |  |  | 
CC(O)CO (configuration not stated) [PROPYLENE GLYCOL] | Not Active | Not Active | Not Active | Not Active | Not Active | Not Active | Not Active | Not Active | Not Active | Not Active |  |  |  |  |  |  |  | 
CADMIUM ACETATE | Not Active | Not Active | Not Active | Not Active | Not Active | Not Active | Not Active | Not Active | Not Active | Not Active |  |  | Not Active | Not Active | Not Active | Not Active | Not Active | Not Active
